Test results from PubChem BioAssay (NCI).
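Interpolation was linear, between the two tested concentrations surrounding the appropriate level; five concentrations were tested over 48 hours in 96-well plates. TGI denotes the concentration required for complete inhibition of growth.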

Legend:
Assay in all cases: NCI-60 cell line screen, 48 h
786-0 renal = system: 786-0 renal
A498 renal = system: A498 renal
A549 NSCLC = system: A549 NSCLC
BT-549 breast = system: BT-549 breast
CAKI-1 renal = system: CAKI-1 renal
CCRF-CEM leukemia = system: CCRF-CEM leukemia
COLO 205 colon = system: COLO 205 colon
DU-145 prostate = system: DU-145 prostate
EKVX NSCLC = system: EKVX NSCLC
HCT-116 colon = system: HCT-116 colon
HOP-62 NSCLC = system: HOP-62 NSCLC
HS 578T breast = system: HS 578T breast
HT29 colon = system: HT29 colon
IGROV1 ovarian = system: IGROV1 ovarian
K-562 leukemia = system: K-562 leukemia
KM12 colon = system: KM12 colon
LOX IMVI melanoma = system: LOX IMVI melanoma
M14 melanoma = system: M14 melanoma
MALME-3M melanoma = system: MALME-3M melanoma
MCF7 breast = system: MCF7 breast
MDA-MB-231 breast = system: MDA-MB-231 breast
MDA-MB-435 = system: MDA-MB-435
MDA-N = system: MDA-N
MOLT-4 leukemia = system: MOLT-4 leukemia
NCI-H226 lung = system: NCI-H226 lung
NCI-H522 lung = system: NCI-H522 lung
NCI/ADR-RES ovarian = system: NCI/ADR-RES ovarian
OVCAR-3 ovarian = system: OVCAR-3 ovarian
OVCAR-5 ovarian = system: OVCAR-5 ovarian
OVCAR-8 ovarian = system: OVCAR-8 ovarian
PC-3 prostate = system: PC-3 prostate
RPMI-8226 leukemia = system: RPMI-8226 leukemia
RXF 393 renal = system: RXF 393 renal
SF-268 CNS = system: SF-268 CNS
SF-295 CNS = system: SF-295 CNS
SK-MEL-2 melanoma = system: SK-MEL-2 melanoma
SK-MEL-28 melanoma = system: SK-MEL-28 melanoma
SK-MEL-5 melanoma = system: SK-MEL-5 melanoma
SK-OV-3 ovarian = system: SK-OV-3 ovarian
SN12C renal = system: SN12C renal
SNB-19 CNS = system: SNB-19 CNS
SNB-75 CNS = system: SNB-75 CNS
SR leukemia = system: SR leukemia
SW-620 colon = system: SW-620 colon
T-47D breast = system: T-47D breast
U251 CNS = system: U251 CNS
UACC-62 melanoma = system: UACC-62 melanoma
UO-31 renal = system: UO-31 renal

For `C[N+]12C=CC=C1C(N1CCCC1)c1scc(-c3ccccc3)c12` (stereo not drawn), which TGI (786-0 renal) is on record?
The TGI was over 100 µM.

What about the TGI (A498 renal) of the same compound?
The TGI was over 100 µM.

And the TGI (A549 NSCLC)?
The TGI was over 100 µM.

And the TGI (BT-549 breast)?
Its TGI is over 100 µM.

And the TGI (CAKI-1 renal)?
Its TGI is over 100 µM.

And the TGI (CCRF-CEM leukemia)?
The TGI was over 100 µM.

And the TGI (COLO 205 colon)?
The TGI was 41.2 µM.

And the TGI (DU-145 prostate)?
The TGI was over 100 µM.

What about the TGI (EKVX NSCLC) of the same compound?
Its TGI is over 100 µM.

What about the TGI (HCT-116 colon) of the same compound?
Its TGI is over 100 µM.

What about the TGI (HOP-62 NSCLC) of the same compound?
Its TGI is over 100 µM.

What about the TGI (HS 578T breast) of the same compound?
Its TGI is 67.5 µM.

And the TGI (HT29 colon)?
Its TGI is 24.4 µM.

What about the TGI (IGROV1 ovarian) of the same compound?
The TGI was 31.6 µM.

And the TGI (K-562 leukemia)?
Its TGI is 29.1 µM.

And the TGI (KM12 colon)?
Its TGI is 31.3 µM.

What about the TGI (LOX IMVI melanoma) of the same compound?
Its TGI is over 100 µM.

What about the TGI (M14 melanoma) of the same compound?
The TGI was over 100 µM.

And the TGI (MALME-3M melanoma)?
The TGI was 49.8 µM.

And the TGI (MCF7 breast)?
Its TGI is 71.7 µM.

What about the TGI (MDA-MB-231 breast) of the same compound?
Its TGI is over 100 µM.

What about the TGI (MDA-MB-435) of the same compound?
The TGI was over 100 µM.

And the TGI (MDA-N)?
Its TGI is 84.3 µM.

What about the TGI (MOLT-4 leukemia) of the same compound?
Its TGI is 64.6 µM.

And the TGI (NCI-H226 lung)?
The TGI was 28.9 µM.

What about the TGI (NCI-H522 lung) of the same compound?
Its TGI is 29.7 µM.

What about the TGI (NCI/ADR-RES ovarian) of the same compound?
The TGI was over 100 µM.

What about the TGI (OVCAR-3 ovarian) of the same compound?
The TGI was 87.8 µM.

And the TGI (OVCAR-5 ovarian)?
Its TGI is over 100 µM.

What about the TGI (OVCAR-8 ovarian) of the same compound?
Its TGI is over 100 µM.

And the TGI (PC-3 prostate)?
The TGI was 89.9 µM.

What about the TGI (RPMI-8226 leukemia) of the same compound?
The TGI was over 100 µM.

And the TGI (RXF 393 renal)?
Its TGI is 90.1 µM.

What about the TGI (SF-268 CNS) of the same compound?
The TGI was over 100 µM.

What about the TGI (SF-295 CNS) of the same compound?
Its TGI is over 100 µM.

And the TGI (SK-MEL-2 melanoma)?
The TGI was 42.3 µM.

What about the TGI (SK-MEL-28 melanoma) of the same compound?
Its TGI is over 100 µM.

What about the TGI (SK-MEL-5 melanoma) of the same compound?
The TGI was 27.6 µM.

What about the TGI (SK-OV-3 ovarian) of the same compound?
The TGI was over 100 µM.

And the TGI (SN12C renal)?
Its TGI is 70 µM.

What about the TGI (SNB-19 CNS) of the same compound?
The TGI was over 100 µM.

What about the TGI (SNB-75 CNS) of the same compound?
The TGI was 47.8 µM.

And the TGI (SR leukemia)?
The TGI was 37.4 µM.

And the TGI (SW-620 colon)?
Its TGI is over 100 µM.

What about the TGI (T-47D breast) of the same compound?
The TGI was 78.4 µM.

And the TGI (U251 CNS)?
The TGI was over 100 µM.

And the TGI (UACC-62 melanoma)?
The TGI was over 100 µM.

What about the TGI (UO-31 renal) of the same compound?
Its TGI is over 100 µM.
